Laboratory results taken from patent US7511041B2, “Fused azole-pyrimidine derivatives” (Bayer Pharmaceuticals Corporation, priority 2002, dated 2009).
pIC50: −log10 of the molar value. Like-named read-outs stand apart in the source and are kept apart here.

Key:
[1] = molecular target: T1, Recombinant human PI3Kγ (full length human PI3K p110γ) (Homo sapiens, UniProt P48736); assay: Kinase assay of PI3Kγ (solid-phase lipid kinase assay); type: biochemical
T1 construct: full length human PI3K p110γ fused with a His6-tag at the C-terminus; His6 (C); purchased ALEXIS BIOCHEMICALS #201-055-C010; host or cells: S. frugiperda 9 insect cells

[2] = in vitro PI3K-γ inhibitory activity, class symbols, read-out: in vitro PI3K-gamma

T1 sequence (P48736 whole entry, the tested form may be a part): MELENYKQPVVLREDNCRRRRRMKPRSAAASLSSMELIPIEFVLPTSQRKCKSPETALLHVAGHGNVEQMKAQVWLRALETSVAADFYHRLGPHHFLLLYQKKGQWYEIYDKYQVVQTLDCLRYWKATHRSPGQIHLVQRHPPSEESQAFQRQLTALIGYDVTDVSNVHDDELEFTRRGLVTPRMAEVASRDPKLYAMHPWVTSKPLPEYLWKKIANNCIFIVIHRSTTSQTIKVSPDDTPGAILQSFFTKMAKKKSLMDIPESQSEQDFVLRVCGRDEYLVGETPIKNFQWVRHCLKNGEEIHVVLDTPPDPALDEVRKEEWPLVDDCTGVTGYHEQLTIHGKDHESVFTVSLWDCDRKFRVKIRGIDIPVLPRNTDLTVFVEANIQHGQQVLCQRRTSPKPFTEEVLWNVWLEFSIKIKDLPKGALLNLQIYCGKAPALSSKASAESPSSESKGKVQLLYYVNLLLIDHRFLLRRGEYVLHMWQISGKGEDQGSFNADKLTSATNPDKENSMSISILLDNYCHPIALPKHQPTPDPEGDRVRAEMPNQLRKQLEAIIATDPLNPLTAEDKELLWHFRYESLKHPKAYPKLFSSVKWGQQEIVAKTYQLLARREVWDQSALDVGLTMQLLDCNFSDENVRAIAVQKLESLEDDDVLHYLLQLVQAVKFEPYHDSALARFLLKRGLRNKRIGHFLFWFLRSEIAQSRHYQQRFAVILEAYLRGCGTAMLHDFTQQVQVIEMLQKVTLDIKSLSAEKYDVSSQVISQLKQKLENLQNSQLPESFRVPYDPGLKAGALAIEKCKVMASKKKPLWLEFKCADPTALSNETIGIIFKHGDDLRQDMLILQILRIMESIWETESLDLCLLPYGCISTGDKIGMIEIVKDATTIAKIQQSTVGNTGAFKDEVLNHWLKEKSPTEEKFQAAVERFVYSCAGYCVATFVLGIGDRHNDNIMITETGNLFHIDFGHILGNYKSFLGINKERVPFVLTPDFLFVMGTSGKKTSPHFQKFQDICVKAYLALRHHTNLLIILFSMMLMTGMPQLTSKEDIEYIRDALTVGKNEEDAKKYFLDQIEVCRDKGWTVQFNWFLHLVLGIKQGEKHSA

Row | SMILES | pIC50 ([1]; Table 1, isozyme not given, read-out: in vitro) | melting point | pIC50 [1, 2]
1 | Cl.O/C(=C\C1=Nc2cc(N3CCCC(O)C3)ccc2C2=NCCN12)c1ccc2[nH]cnc2c1 (centres unmarked) [Example 1-210] | > 7.00 | > 300 °C | 
2 | COc1ccc2c(c1)N=C(NC(=O)c1ccc(NC(C)=O)nc1)N1CCN=C21.Cl [Example 2-22] |  | 198 to 205 °C (dec.) | 6.30 to 7.00
3 | Cc1ccc2c(c1)N=C(NC(=O)c1ccc3[nH]cnc3c1)N1CCN=C21.Cl [Example 2-30] |  | 295 °C | 6.30 to 7.00
4 | Cc1ccc2c(c1)N=C(NC(=O)c1cccs1)N1CCN=C21 [Example 2-31] |  | 182 °C | 6.30 to 7.00
5 | O=C(NC1=Nc2cc(C(F)(F)F)ccc2C2=NCCN12)c1cccnc1 [Example 2-33] |  | 229 °C | 6.30 to 7.00
6 | O=C(NC1=Nc2cc(C(F)(F)F)ccc2C2=NCCN12)c1ccc2[nH]cnc2c1 [Example 2-36] |  | > 300 °C | 6.30 to 7.00
7 | Cl.O=C(NC1=Nc2cc(Cl)ccc2C2=NCCN12)c1cccnc1 [Example 2-38] |  | 308 °C | 6.30 to 7.00
8 | Cl.O=C(NC1=Nc2cc(Cl)ccc2C2=NCCN12)c1cccs1 [Example 2-41] |  | 328 °C | 6.30 to 7.00
9 | Cc1ncccc1C(=O)NC1=Nc2cc(Br)ccc2C2=NCCN12.Cl [Example 2-43] |  | 252 °C (dec.) | 6.30 to 7.00
10 | O=C(NC1=Nc2cc(Br)ccc2C2=NCCN12)c1ccc2[nH]cnc2c1 [Example 2-44] |  | 262 °C | 6.30 to 7.00
11 | COc1cc2c(cc1OC)C1=NCCN1C(NC(=O)c1ccc(N)nc1)=N2.Cl [Example 2-56] |  | 256 °C | 6.30 to 7.00
12 | COc1cc2c(cc1OC)C1=NCCN1C(NC(=O)c1ccc(NC(C)=O)nc1)=N2 [Example 2-57] |  | 224 °C | 6.30 to 7.00
13 | COc1cc2c(cc1OC)C1=NCCN1C(NC(=O)c1cncc(C)c1)=N2.Cl [Example 2-59] |  | 257 °C (dec.) | 6.30 to 7.00
14 | COc1cc2c(cc1OC)C1=NCCN1C(NC(=O)c1cccs1)=N2 [Example 2-62] |  | 248 °C | 6.30 to 7.00
15 | COc1cc2c(cc1OC)C1=NCCN1C(NC(=O)c1cn[nH]c1)=N2.Cl [Example 2-63] |  | 270 °C (dec.) | 6.30 to 7.00
16 | COc1cc2c(cc1OC)C1=NCCN1C(NC(=O)c1cc(C)nn1C)=N2 [Example 2-64] |  | 236 to 237 °C | 6.30 to 7.00
17 | COc1cc2c(cc1Br)C1=NCCN1C(NC(=O)c1cccnc1)=N2.Cl [Example 2-67] |  | 289 °C (dec.) | 6.30 to 7.00
18 | COc1cc(OC)c2c(c1)C1=NCCN1C(NC(=O)c1cccnc1)=N2.Cl [Example 2-69] |  | 275 °C (dec.) | 6.30 to 7.00
19 | COc1cc(OC)c2c(c1)C1=NCCN1C(NC(=O)c1ccc(NC(C)=O)nc1)=N2 [Example 2-70] |  | 286 °C (dec.) | 6.30 to 7.00
20 | Cc1cc(Br)c2c(c1)C1=NCCN1C(NC(=O)c1ccc3[nH]cnc3c1)=N2 [Example 2-75] |  | > 290 °C | 6.30 to 7.00
21 | COc1cc2c(c(OC)c1C)N=C(NC(=O)c1cccnc1)N1CCN=C21.Cl [Example 2-76] |  | 235 °C (dec.) | 6.30 to 7.00
22 | COc1cc2c(c(OC)c1C)N=C(NC(=O)c1ccc(NC(C)=O)nc1)N1CCN=C21 [Example 2-79] |  | > 310 °C | 6.30 to 7.00
23 | COc1cc2c(c(OC)c1C)N=C(NC(=O)c1ccc3[nH]cnc3c1)N1CCN=C21 [Example 2-81] |  | 202 °C | 6.30 to 7.00
24 | Cl.O=C(NC1=Nc2ccc(F)cc2C2=NCCN12)c1ccc2[nH]cnc2c1 [Example 2-83] |  | > 300 °C | 6.30 to 7.00
25 | O=C(NC1=Nc2ccc(Cl)cc2C2=NCCN12)c1cccnc1 [Example 2-84] |  | 210 °C | 6.30 to 7.00
26 | Cl.O=C(NC1=Nc2ccc(Cl)cc2C2=NCCN12)c1ccc2[nH]cnc2c1 [Example 2-86] |  | 305 °C (dec.) | 6.30 to 7.00
27 | O=C(NC1=Nc2ccc(Br)cc2C2=NCCN12)c1cccnc1 [Example 2-87] |  | 228 °C | 6.30 to 7.00
28 | Cl.O=C(NC1=Nc2ccc(Br)cc2C2=NCCN12)c1ccc2[nH]cnc2c1 [Example 2-89] |  | 288 °C | 6.30 to 7.00
29 | Cc1ccc2c(c1)C1=NCCN1C(NC(=O)c1cccnc1)=N2.Cl [Example 2-91] |  | > 290 °C | 6.30 to 7.00
30 | COc1ccc2c(c1)C1=NCCN1C(NC(=O)c1cccnc1)=N2.Cl [Example 2-93] |  | > 300 °C | 6.30 to 7.00

Continued, values first:

Row | pIC50 ([1]; Table 1, isozyme not given, read-out: in vitro) | melting point | pIC50 [1, 2] | SMILES
31 |  | 243 °C | 6.30 to 7.00 | O=C(NC1=Nc2cc(N3CCOCC3)ccc2C2=NCCN12)c1cccnc1 [Example 2-7]
32 |  | 283 °C | > 7.00 | Cl.O=C(NC1=Nc2cc(N3CCOCC3)ccc2C2=NCCN12)c1cccnc1 [Example 2-8]
33 |  | 249 °C | 6.30 to 7.00 | CC(=O)Nc1ccc(C(=O)NC2=Nc3cc(N4CCOCC4)ccc3C3=NCCN23)cc1.Cl [Example 2-9]
34 |  | 250 °C (dec.) | 6.30 to 7.00 | O=C(NC1=Nc2cc(N3CCOCC3)ccc2C2=NCCN12)c1ccc2[nH]cnc2c1 [Example 2-10]
35 |  | 294 °C (dec.) | > 7.00 | Cl.O=C(NC1=Nc2cc(N3CCOCC3)ccc2C2=NCCN12)c1ccc2[nH]cnc2c1 [Example 2-11]
36 |  | 199 °C (dec.) | 6.30 to 7.00 | Cc1ncccc1C(=O)NC1=Nc2cc(N3CCOCC3)ccc2C2=NCCN12 [Example 2-12]
37 |  | 209 °C | > 7.00 | Cc1ccc(C(=O)NC2=Nc3cc(N4CCOCC4)ccc3C3=NCCN23)cn1 [Example 2-13]
38 |  | 233 °C (dec.) | 6.30 to 7.00 | Cc1nc(C)c(C(=O)NC2=Nc3cc(N4CCOCC4)ccc3C3=NCCN23)s1 [Example 2-16]
39 |  | 255 °C (dec.) | > 7.00 | Cc1nc(C)c(C(=O)NC2=Nc3cc(N4CCOCC4)ccc3C3=NCCN23)s1.Cl [Example 2-17]
40 |  | 232 °C | 6.30 to 7.00 | CCn1nc(C)cc1C(=O)NC1=Nc2cc(N3CCOCC3)ccc2C2=NCCN12 [Example 2-18]
41 |  | 281 °C (dec.) | 6.30 to 7.00 | COc1ccc2c(c1)N=C(NC(=O)c1cccnc1)N1CCN=C21 [Example 2-20]
42 |  | 279 to 282 °C | > 7.00 | COc1ccc2c(c1)N=C(NC(=O)c1ccc(N)nc1)N1CCN=C21 [Example 2-23]
43 |  | 186 °C | > 7.00 | COc1ccc2c(c1)N=C(NC(=O)c1ccc3[nH]cnc3c1)N1CCN=C21 [Example 2-25]
44 |  | 207 °C | > 7.00 | Cc1ccc2c(c1)N=C(NC(=O)c1cccnc1)N1CCN=C21 [Example 2-27]
45 |  | 190 °C | > 7.00 | Cc1ccc2c(c1)N=C(NC(=O)c1ccc3[nH]cnc3c1)N1CCN=C21 [Example 2-29]
46 |  | 275 °C | > 7.00 | Cl.O=C(NC1=Nc2cc(C(F)(F)F)ccc2C2=NCCN12)c1cccnc1 [Example 2-34]
47 |  | 237 °C (dec.) | > 7.00 | Cl.O=C(NC1=Nc2cc(C(F)(F)F)ccc2C2=NCCN12)c1cncc(O)c1 [Example 2-35]

Row | pIC50 ([1]; Table 1, isozyme not given, read-out: in vitro) | melting point | pIC50 [1, 2] | SMILES
48 |  | 288 °C | > 7.00 | Cl.O=C(NC1=Nc2cc(C(F)(F)F)ccc2C2=NCCN12)c1ccc2[nH]cnc2c1 [Example 2-37]
49 |  | 288 °C | > 7.00 | O=C(NC1=Nc2cc(Cl)ccc2C2=NCCN12)c1ccc2[nH]cnc2c1 [Example 2-39]
50 |  | 243 °C | > 7.00 | Cl.O=C(NC1=Nc2cc(Br)ccc2C2=NCCN12)c1cccnc1 [Example 2-42]
51 |  | 278 °C | > 7.00 | Cl.O=C(NC1=Nc2cc(Br)ccc2C2=NCCN12)c1ccc2[nH]cnc2c1 [Example 2-45]
52 |  | 306 to 307 °C | > 7.00 | COc1ccc2c(c1OC)N=C(NC(=O)c1ccc(NC(C)=O)nc1)N1CCN=C21 [Example 2-48]
53 |  | 289 °C (dec.) | > 7.00 | COc1ccc2c(c1OC)N=C(NC(=O)c1ccc3[nH]cnc3c1)N1CCN=C21 [Example 2-49]
54 |  | 233 °C (dec.) | > 7.00 | COc1ccc2c(c1OC)N=C(NC(=O)c1cnc3[nH]cnc3c1)N1CCN=C21 [Example 2-51]
55 |  | 287 °C (dec.) | > 7.00 | COc1cc2c(cc1OC)C1=NCCN1C(NC(=O)c1cncc(O)c1)=N2 [Example 2-54]
56 |  | 246 °C | > 7.00 | COc1cc2c(cc1OC)C1=NCCN1C(NC(=O)c1ccc3[nH]cnc3c1)=N2 [Example 2-60]
57 |  | 264 °C | > 7.00 | COc1ccc2c(c1Br)N=C(NC(=O)c1cccnc1)N1CCN=C21 [Example 2-65]
58 |  | 228 °C (dec.) | > 7.00 | COc1cc(OC)c2c(c1)C1=NCCN1C(NC(=O)c1cccnc1)=N2 [Example 2-68]
59 |  | 210 °C (dec.) | > 7.00 | COc1cc(OC)c2c(c1)C1=NCCN1C(NC(=O)c1ccc3[nH]cnc3c1)=N2 [Example 2-72]
60 |  | 220 °C | > 7.00 | Cc1cc(Br)c2c(c1)C1=NCCN1C(NC(=O)c1cccnc1)=N2.Cl [Example 2-74]
61 |  | 210 °C (dec.) | > 7.00 | COc1cc2c(c(OC)c1C)N=C(NC(=O)c1cccnc1C)N1CCN=C21 [Example 2-77]
62 |  | 305 °C (dec.) | > 7.00 | COc1cc2c(c(OC)c1C)N=C(NC(=O)c1ccc(NC(C)=O)nc1)N1CCN=C21.Cl [Example 2-80]
63 |  | 210 °C | > 7.00 | Cc1ccc2c(c1)C1=NCCN1C(NC(=O)c1cccnc1)=N2 [Example 2-90]
64 |  | > 290 °C | > 7.00 | Cc1ccc2c(c1)C1=NCCN1C(NC(=O)c1ccc3[nH]cnc3c1)=N2.Cl [Example 2-92]
